Test results published in patent publication US4272437A, “Antibacterial agents, and 4-thio azetidinone intermediates” (priority 1979, dated 1981).
Converted amounts (≈) assume the structure as drawn. Where a name gives a salt, the structure may show the parent alone. Read-outs that look alike come from different tables or passages of the source.

Assays:
[1] = tested on: Staph. aureus (Pen-Res) A-9606; assay: MIC, tube dilution, Staphylococcus aureus A9606 (Pen-Res); format: cell-based; conditions: Staphylococcus aureus, overnight 37° C.
Excerpt: (§1) Representative compounds of the present invention were subjected to in vitro antibiotic screening against a variety of microorganisms.

[2] = tested on: Ps. aeruginosa A-9843A; assay: MIC, tube dilution, Pseudomonas aeruginosa A9843A; format: cell-based; conditions: Pseudomonas aeruginosa, A9843A, read-out: Minimum Inhibitory Concentration (M.I.C.), Pseudomonas aeruginosa A9843A; overnight 37° C.
Excerpt: as §1

[3] = tested on: E. coli A-15119; assay: MIC, tube dilution, Escherichia coli A15119; format: cell-based; conditions: Escherichia coli, A15119, E. coli A15119; overnight 37° C.; read-out: Minimum Inhibitory Concentration (M.I.C.)
Excerpt: as §1

[4] = tested on: Ser. marcescens A-20019; assay: MIC, tube dilution, Serratia marcescens A20019; format: cell-based; conditions: Serratia marcescens, A20019, Serratia marcescens A20019; overnight 37° C.; read-out: Minimum Inhibitory Concentration (M.I.C.)
Excerpt: as §1

[5] = tested on: Ps. aeruginosa A-21213; assay: MIC, tube dilution, Pseudomonas aeruginosa A21213; format: cell-based; conditions: overnight 37° C., read-out: Minimum Inhibitory Concentration (M.I.C.)
Excerpt: as §1

[6] = tested on: Proteus vulgaris A21559; assay: MIC, tube dilution, Proteus vulgaris A21559; format: cell-based; conditions: Proteus vulgaris
Excerpt: as §1

[7] = tested on: Pr. morganii A-15153; assay: MIC, tube dilution, Proteus morganii A15153; format: cell-based; conditions: Morganella morganii, A15153, Proteus morganii A15153; overnight 37° C.; read-out: Minimum Inhibitory Concentration (M.I.C.)
Excerpt: as §1

[8] = tested on: Ent. cloacae A-9659; assay: MIC, tube dilution, Enterobacter cloacae A9659; format: cell-based; conditions: Enterobacter cloacae, A9659, Enterobacter cloacae A9659; overnight 37° C.; read-out: Minimum Inhibitory Concentration (M.I.C.)
Excerpt: as §1

[9] = tested on: Str. pyogenes A-9604; assay: MIC, tube dilution, Streptococcus pyogenes A9604; format: cell-based; conditions: overnight 37° C., Nutrient Broth; for MIC: Streptococcus pyogenes, A9604, Str. pyogenes A9604, read-out: Minimum Inhibitory Concentration (M.I.C.)
Excerpt: as §1

[10] = tested on: Proteus rettgeri A21203; assay: MIC, tube dilution, Proteus rettgeri A21203; format: cell-based; conditions: Providencia rettgeri, overnight 37° C., read-out: Minimum Inhibitory Concentration (M.I.C.)
Excerpt: as §1

[11] = tested on: Klebsiella species A20468; assay: MIC, tube dilution, Klebsiella species A20468; format: cell-based; conditions: Klebsiella species (K. pneumoniae) A20468; overnight 37° C.; read-out: Minimum Inhibitory Concentration (M.I.C.)
Excerpt: as §1

[12] = tested on: Str. pneumoniae A-9585; assay: MIC, tube dilution, Streptococcus pneumoniae A9585; format: cell-based; conditions: Streptococcus pneumoniae, A9585, Str. pneumoniae A9585; overnight 37° C., Nutrient Broth; read-out: Minimum Inhibitory Concentration (M.I.C.)
Excerpt: as §1

[13] = tested on: Pr. mirabilis A-9900; assay: MIC, tube dilution, Proteus mirabilis A9900; format: cell-based; conditions: Proteus mirabilis, A9900, Proteus mirabilis A9900; overnight 37° C.; read-out: Minimum Inhibitory Concentration (M.I.C.)
Excerpt: as §1

[14] = tested on: Str. faecalis A-20688; assay: MIC, tube dilution, Streptococcus faecalis A20688; format: cell-based; conditions: Enterococcus faecalis, A20688, Str. faecalis A20688; overnight 37° C.; read-out: Minimum Inhibitory Concentration (M.I.C.)
Excerpt: as §1

[15] = tested on: E. coli A-20341-1; assay: MIC, tube dilution, Escherichia coli A20341-1; format: cell-based
Excerpt: as §1

[16] = tested on: K. pneumoniae A-15130; assay: MIC, tube dilution, Klebsiella pneumoniae A15130; format: cell-based; conditions: Klebsiella pneumoniae, A15130, K. pneumoniae A15130; overnight 37° C.; read-out: Minimum Inhibitory Concentration (M.I.C.)
Excerpt: as §1

[17] = tested on: Staph. aureus A-9537; assay: MIC, tube dilution, Staphylococcus aureus A9537; format: cell-based; conditions: overnight 37° C., Nutrient Broth; for MIC: Staphylococcus aureus, A9537, Staph. aureus A9537, read-out: Minimum Inhibitory Concentration (M.I.C.)
Excerpt: as §1

[18] = tested on: Staph. aureus A-9537 and 50% serum; assay: MIC, tube dilution, Staph. aureus A9537 + 50% serum; format: cell-based, Staphylococcus aureus; conditions: Staphylococcus aureus, overnight 37° C., read-out: Minimum Inhibitory Concentration (M.I.C.)
Excerpt: as §1

[19] = tested on: Staph. aureus (Meth-Res) A-15097; assay: MIC, tube dilution, Staphylococcus aureus A15097 (Meth-Res); format: cell-based; conditions: overnight 37° C.; for MIC: Staphylococcus aureus
Excerpt: as §1

[20] = tested on: Ent. cloacae A-9656; assay: MIC, tube dilution, Enterobacter cloacae A9656; format: cell-based; conditions: overnight 37° C., read-out: Minimum Inhibitory Concentration (M.I.C.)
Excerpt: as §1

[21] = Staph. aureus A9606 (Pen-Res), read-out: Minimum Inhibitory Concentration (M.I.C.)
[22] = Pseudomonas aeruginosa, A21213, Pseudomonas aeruginosa A21213
[23] = A21559, Proteus vulgaris A21559, overnight 37° C., read-out: Minimum Inhibitory Concentration (M.I.C.)
[24] = A21203, Proteus rettgeri A21203
[25] = Escherichia coli, A203411, E. coli A20341-1; overnight 37° C.; read-out: Minimum Inhibitory Concentration (M.I.C.)
[26] = Staph. aureus A15097 (Meth-Res), read-out: Minimum Inhibitory Concentration (M.I.C.)
[27] = Enterobacter cloacae, A9656, Enterobacter cloacae A9656
[28] = A21559, read-out: Minimum Inhibitory Concentration (M.I.C.)
[29] = Escherichia coli, A203411; E. coli A20341-1; overnight 37° C.; read-out: Minimum Inhibitory Concentration (M.I.C.)
[30] = read-out: Minimum Inhibitory Concentration (M.I.C.), Staph. aureus A9606 (Pen-Res)
[31] = read-out: Minimum Inhibitory Concentration (M.I.C.), Staph. aureus A15097 (Meth-Res)

Row | SMILES | MIC [1, 21] [µg/mL] | MIC [2] [µg/mL] | MIC [3] [µg/mL] | MIC [4] [µg/mL] | MIC [6, 23] [µg/mL] | MIC [7] [µg/mL] | MIC [8] [µg/mL] | MIC [9] [µg/mL] | MIC [10, 24] [µg/mL] | MIC [11] [µg/mL] | MIC [12] [µg/mL] | MIC [13] [µg/mL] | MIC [14] [µg/mL] | MIC [15, 25] [µg/mL] | MIC [16] [µg/mL] | MIC [17] [µg/mL] | MIC [18] [µg/mL] | MIC [19, 26] [µg/mL] | MIC [20, 27] [µg/mL] | MIC ([5]; Pseudomonas aeruginosa A21213) [µg/mL] | also measured
1 | COCOC[C@@H](O)[C@H]1C(=O)N2C(C(=O)O)=C(C)S[C@H]12 (relative stereo) [Example 106, (1'S,5R,6S and 1'R,5S,6R) 6-(1'-Hydroxy-2'-methoxymethoxy-2'-ethyl)-2-methylpenem-3-carboxylic acid (Isomer B)] | > 63 | 63 (≈ 218 µM) | 63 (≈ 218 µM) | 63 (≈ 218 µM) | > 63 | > 63 | > 63 | 32 (≈ 111 µM) | 63 (≈ 218 µM) | > 63 | 32 (≈ 111 µM) | 63 (≈ 218 µM) | > 63 | 63 (≈ 218 µM) | > 63 | 63 (≈ 218 µM) | > 32 | > 63 | 63 (≈ 218 µM) | – | MIC [5, 22]: 63 µg/mL (≈ 218 µM)
2 | CC(N)C1=C(C(=O)O)N2C(=O)CC2S1 (stereo not drawn) [Example 72, 2-(1'-Aminoethyl)-penem-3-carboxylic Acid] | 32 (≈ 149 µM) | > 125 | 125 (≈ 583 µM) | > 125 | – | > 125 | > 125 | 2 (≈ 9.34 µM) | – | > 125 | 1 (≈ 4.67 µM) | 125 (≈ 583 µM) | > 125 | – | > 125 | 4 (≈ 18.7 µM) | 63 | 63 (≈ 294 µM) | – | > 125 | MIC [6, 28]: 125 µg/mL (≈ 583 µM); MIC ([10]; Proteus rettgeri A21203): 125 µg/mL (≈ 583 µM); MIC [15, 29]: > 125 µg/mL; MIC ([20]; Enterobacter cloacae A9656): > 125 µg/mL
3 | CC1=C(C(=O)O)N2C(=O)[C@H]([C@@H](C)N)[C@H]2S1 (relative stereo) [Example 70, (1'R,5R,6S and 1'S,5S,6R) 6-1'Amino-1'-ethyl)-2-methylpenem-3-carboxylic Acid] | > 63 | > 63 | > 63 | > 63 | > 63 | > 63 | > 63 | > 63 | > 63 | > 63 | > 63 | > 63 | > 63 | > 63 | > 63 | > 63 | > 32 | > 63 | > 63 | – | MIC [5, 22]: > 63 µg/mL
4 | CC[C@H](O)[C@H]1C(=O)N2C(C(=O)O)=C(C)S[C@H]12 (relative stereo) [Example 93, (1'S,5R,6S, and 1'R,5S,6R) 6-(1'--Hydroxy-1'-propyl)-2-methylpenem-3-carboxylic acid, sodium salt (isomer C)] | – | > 125 | > 125 | > 125 | – | > 125 | > 125 | > 125 | – | > 125 | > 125 | > 125 | > 125 | – | > 125 | > 125 | > 63 | – | – | > 125 | MIC [1, 30]: > 125 µg/mL; MIC [6, 28]: > 125 µg/mL; MIC ([10]; Proteus rettgeri A21203): > 125 µg/mL; MIC [15, 29]: > 125 µg/mL; MIC [19, 31]: > 125 µg/mL; MIC ([20]; Enterobacter cloacae A9656): > 125 µg/mL
5 | CC1=C(C(=O)O)N2C(=O)[C@@H]([C@H](C)O)[C@H]2S1 (relative stereo) [Example 61, (1'S,5R,6R and 1'R,5S,6S) 6-(1'-Hydroxy-1'-ethyl)-2-methylpenem-3-carboxylic Acid (isomer A)] | 1 (≈ 4.36 µM) | 63 (≈ 275 µM) | 2 (≈ 8.72 µM) | 8 (≈ 34.9 µM) | 4 (≈ 17.4 µM) | 8 (≈ 34.9 µM) | 8 (≈ 34.9 µM) | 0.06 (≈ 0.262 µM) | 2 (≈ 8.72 µM) | 63 (≈ 275 µM) | 0.03 (≈ 0.131 µM) | 2 (≈ 8.72 µM) | 2 (≈ 8.72 µM) | 8 (≈ 34.9 µM) | 8 (≈ 34.9 µM) | 0.5 (≈ 2.18 µM) | 4 | 2 (≈ 8.72 µM) | 32 (≈ 140 µM) | – | –
6 | NCC(=O)OCC1=C(C(=O)O)N2C(=O)CC2S1 (stereo not drawn) [Example 81, 2-Aminoacetoxymethyl-penem-3-carboxylic Acid] | 2 (≈ 7.74 µM) | 63 (≈ 244 µM) | 2 (≈ 7.74 µM) | 8 (≈ 31 µM) | 16 (≈ 62 µM) | 8 (≈ 31 µM) | 8 (≈ 31 µM) | 16 (≈ 62 µM) | 8 (≈ 31 µM) | > 63 | 2 (≈ 7.74 µM) | 4 (≈ 15.5 µM) | 63 (≈ 244 µM) | 32 (≈ 124 µM) | 8 (≈ 31 µM) | 32 (≈ 124 µM) | > 32 | 8 (≈ 31 µM) | 8 (≈ 31 µM) | – | MIC [5, 22]: > 63 µg/mL
7 | O=C([O-])C1=C(CO)S[C@@H]2CC(=O)N12.[Na+] [Preparation 20, Sodium 2-Hydroxymethylpenem-3-carboxylate] | – | 125 | 16 | 32 | – | 32 | 63 | 1 | – | > 125 | 0.25 | 16 | > 125 | – | 63 | 2 | 16 | – | – | > 125 | MIC [1, 30]: 4 µg/mL; MIC ([10]; Proteus rettgeri A21203): 32 µg/mL; MIC [15, 29]: 63 µg/mL; MIC [19, 31]: 8 µg/mL; MIC ([20]; Enterobacter cloacae A9656): 32 µg/mL
8 | O=C(O)C1=C(C2CC2)SC2CC(=O)N12 (stereo not drawn) [Example 14, 2-Cyclopropylpenem-3-carboxylic Acid] | – | 125 (≈ 592 µM) | 4 (≈ 18.9 µM) | 8 (≈ 37.9 µM) | – | 16 (≈ 75.7 µM) | 16 (≈ 75.7 µM) | 0.25 (≈ 1.18 µM) | 4 (≈ 18.9 µM) | > 125 | 0.06 (≈ 0.284 µM) | 4 (≈ 18.9 µM) | 63 (≈ 298 µM) | 63 (≈ 298 µM) | 16 (≈ 75.7 µM) | 0.13 (≈ 0.615 µM) | 16 | 2 (≈ 9.47 µM) | 16 (≈ 75.7 µM) | 125 (≈ 592 µM) | –
9 | CC1=C(C(=O)O)N2C(=O)[C@@H]([C@@H](C)O)[C@H]2S1 (relative stereo) [Example 58, (1'R,5R,6R) and (1'S,5S,6S) 6-(1'-Hydroxy-1'-ethyl)-2-methylpenem-3-carboxylic Acid (isomer D)] | – | – | – | – | – | – | – | – | – | – | – | – | – | – | – | – | – | – | – | – | Minimum Inhibitory Concentration (M.I.C.) ([9]; Str. pyogenes A9604): 2 µg/mL; Minimum Inhibitory Concentration (M.I.C.) ([17]; Staph. aureus A9537): 4 µg/mL; Minimum Inhibitory Concentration (M.I.C.) ([19]; Staph. aureus A15097 (Meth-Res)): 16 µg/mL
